What was measured:
[1] = molecular target: T1, ΔF508-CFTR (Homo sapiens, UniProt P13569, DEL508-508); assay: Corrector assay, YFP fluorescence plate reader iodide influx in ΔF508-CFTR expressing FRT cells; type: cell-based; conditions: Compound 22 (20 µM) or Corr-4a (10 µM), 24 h
T1 construct: expressed in transfected cells; host or cells: Fischer rat thyroid (FRT) epithelial cells, stably transfected
Description: Screening procedures. Screening of compounds for activity was carried out using a Beckman Coulter platform equipped with FLUOstar fluorescence plate readers (Optima; BMG Labtech) with dual syringe pumps and 500±10 nm excitation and 535±15 nm emission filters (Chroma Corp.). For the corrector assay, FRT cells were grown at 37° C./5% CO2 for 18-24 h and then incubated for 18-24 h with 100 μL of medium containing test compounds (25 μM final concentration). At the time of the assay, cells were washed with PBS and then incubated for 10 min with PBS containing forskolin (20 μM) and genistein (50 μM). For the potentiator assay, FRT cells were grown at 37° C./5% CO2 for 18-24 h and then for 18-24 h at 27° C. At the time of the assay, cells were washed with PBS and then incubated for 10 min with PBS (50 μL) containing forskolin (20 μM) and test compound (0-25 μM final concentration). For both the corrector and potentiator assays, each well was assayed individually for I^− influx by recording fluorescence continuously (200 ms per point) for 2 s (baseline) and then for 12 s after rapid addition of 165 μL PBS in which 137 mM Cl^− was replaced by I^−. Initial I^− influx rate was computed by fitting the final 11.5 seconds of the data to an exponential for extrapolation of initial slope, which was normalized for background-subtracted initial fluorescence. All compound plates contained negative controls and positive controls (10 μM Corr-4a for corrector assay; 50 μM genistein for potentiator assay).
Screening of about 110,000 small molecules was done to identify new ΔF508-CFTR corrector scaffolds having high correction efficiency and/or having independent potentiator activity. […] FRT cells co-expressing human ΔF508-CFTR and a halide-sensing YFP were incubated with test compounds at 37° C. (corrector assay) or 27° C. (potentiator assay). ΔF508-CFTR function was assayed in a plate reader from YFP fluorescence quenching in response to iodide addition in the presence of forskolin (20 μM) plus genistein (50 μM) for corrector assay, or forskolin (20 μM) alone for potentiator assay. As shown in FIG. 1A (left), primary screening for corrector activity was done using a cell-based fluorescence assay of iodide influx in which FRT cells expressing ΔF508-CFTR and an iodide-sensitive YFP were incubated with test compounds at 10 μM for 18-24 h prior to assay. Iodide influx was measured by addition of extracellular iodide in the presence of a potentiator (50 μM genistein) and cAMP agonist (20 μM forskolin). Compound efficacy and potency (from concentration-dependence studies) in the corrector assay were compared to reference bithiazole Corr-4a (10 μM) and to low-temperature rescued cells. Active compounds were counter-screened for potentiator activity (FIG. 1A, right) in which iodide influx was measured in the ΔF508-CFTR expressing FRT cells after low-temperature rescue and in the presence of 20 μM forskolin.
Screening procedures. Plate reader activity assay was carried out using a Beckman Coulter platform containing a robotic arm, CO2 incubator containing microplate carousel, plate-washer, liquid handling work station, bar code reader, de-lidding station, plate sealer, and FLUOstar fluorescence plate readers (Optima; BMG LABTECH Gmbh), equipped with dual syringe pumps and 500±10 nm excitation and 535±15 nm emission filters (Chroma Corp.). For the corrector assay, ΔF508-CFTR-expressing FRT cells were grown at 37° C. (90% humidity; 5% CO2) for 18-24 h and then incubated for 18-24 h with 100 μL of medium containing test compounds (0-25 μM final concentration). At the time of the assay, cells were washed with PBS and then incubated for 10 min with PBS containing forskolin (20 μM) and genistein (50 μM). For the potentiator assay, FRT cells were grown at 37° C. (90% humidity; 5% CO2) for 18-24 h and then for 18-24 h at 27° C. […]

[2] = molecular target: T1, ΔF508-CFTR; assay: CFTR immunoblot of ΔF508-CFTR expressing FRT cells; type: cell-based; conditions: 24 h at 37° C.
Description: CFTR Immunoblot. DF508-CFTR expressing FRT cells grown on 6-well plates were treated with Corr-4a ([…]), Compound 22 […] or negative control at 37° C. for 24 h. After treatment, cells were washed with PBS and lysed in 20 mM Hepes (pH 7), 150 mM NaCl, 1 mM EGTA and 1% Igepal containing Complete Protease Inhibitor Cocktail (Roche). After pre-clearing, lysates were subjected to SDS-PAGE and analyzed by immunoblot. Proteins were immunodetected using a mouse monoclonal anti-CFTR antibody (M3A7, Millipore) followed by HRP-conjugated anti-mouse IgG, and visualized by chemiluminescence (ECL Plus, Amersham).
The action of Compound 22 as corrector of defective ΔF508-CFTR cellular processing was verified by CFTR immunoblot analysis (FIG. 4C). Wildtype CFTR was detected as a strong band at 170 kDa (band C), corresponding to complex glycosylated CFTR. […] Band B, which corresponds to core-glycosylated ΔF508-CFTR, was also seen.

T1 sequence (P13569 with tags, fused parts or gaps DEL508-508): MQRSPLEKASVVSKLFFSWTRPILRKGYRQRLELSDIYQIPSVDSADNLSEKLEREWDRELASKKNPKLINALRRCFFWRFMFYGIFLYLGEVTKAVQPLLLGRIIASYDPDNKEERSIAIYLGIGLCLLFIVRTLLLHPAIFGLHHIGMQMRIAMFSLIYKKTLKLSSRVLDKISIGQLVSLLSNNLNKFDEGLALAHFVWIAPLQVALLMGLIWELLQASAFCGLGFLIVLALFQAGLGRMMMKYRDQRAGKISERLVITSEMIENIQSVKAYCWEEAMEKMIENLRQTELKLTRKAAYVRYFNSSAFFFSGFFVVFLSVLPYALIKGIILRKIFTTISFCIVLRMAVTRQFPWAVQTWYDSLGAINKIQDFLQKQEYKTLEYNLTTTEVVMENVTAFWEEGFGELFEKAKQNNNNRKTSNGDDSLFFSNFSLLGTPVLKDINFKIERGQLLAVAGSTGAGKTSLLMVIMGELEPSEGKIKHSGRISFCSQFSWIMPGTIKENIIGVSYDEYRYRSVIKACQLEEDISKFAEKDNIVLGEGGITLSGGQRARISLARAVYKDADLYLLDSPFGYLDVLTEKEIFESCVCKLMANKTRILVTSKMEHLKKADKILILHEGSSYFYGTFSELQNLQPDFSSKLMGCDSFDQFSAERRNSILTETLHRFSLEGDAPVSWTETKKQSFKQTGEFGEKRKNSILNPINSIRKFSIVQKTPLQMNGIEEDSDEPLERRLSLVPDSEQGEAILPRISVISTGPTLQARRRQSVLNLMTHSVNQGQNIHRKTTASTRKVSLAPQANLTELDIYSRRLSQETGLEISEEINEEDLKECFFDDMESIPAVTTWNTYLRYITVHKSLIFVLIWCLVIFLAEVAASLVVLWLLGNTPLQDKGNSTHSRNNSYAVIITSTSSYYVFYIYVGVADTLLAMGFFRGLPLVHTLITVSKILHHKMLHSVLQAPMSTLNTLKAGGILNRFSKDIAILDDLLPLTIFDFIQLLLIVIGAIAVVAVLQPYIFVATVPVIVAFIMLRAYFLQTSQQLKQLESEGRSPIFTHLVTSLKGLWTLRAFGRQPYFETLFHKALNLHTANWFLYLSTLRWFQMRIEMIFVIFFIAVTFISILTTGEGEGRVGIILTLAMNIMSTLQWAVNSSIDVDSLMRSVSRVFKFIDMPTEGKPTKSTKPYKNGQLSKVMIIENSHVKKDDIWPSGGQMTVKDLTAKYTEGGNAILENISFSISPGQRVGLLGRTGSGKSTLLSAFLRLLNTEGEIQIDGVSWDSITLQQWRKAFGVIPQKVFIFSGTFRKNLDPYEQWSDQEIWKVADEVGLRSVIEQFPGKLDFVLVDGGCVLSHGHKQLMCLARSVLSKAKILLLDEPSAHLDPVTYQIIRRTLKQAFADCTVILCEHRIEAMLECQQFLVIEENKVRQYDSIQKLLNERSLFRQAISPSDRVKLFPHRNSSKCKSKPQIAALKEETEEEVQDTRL

Structure (SMILES): COc1ccc(Cl)cc1Nc1nc(-c2sc(NC(=O)c3ccccc3)nc2C)cs1 [Corr-4a, reference compound]
- iodide influx after incubation at 27° C. ([1]; 27° C., vs low-temperature rescue control): substantially increased iodide influx
- iodide influx after incubation at 37° C. ([1]; 37° C., with genistein): increased iodide influx
- complex glycosylated CFTR (band C) in immunoblot [2]: band C was visualized

Reference: US9073863B2, “Cyanoquinoline compounds having activity in correcting mutant-CFTR processing and increasing ion transport and uses thereof” (The Regents of the University of California, priority 2011, dated 2015)
